From article PMC5880808, “A lever-like transduction pathway for long-distance chemical- and mechano-gating of the mechanosensitive Piezo1 channel” (Nature Communications, 2018)

Tests used:
mPiezo1 [1] = target: T1, mPiezo1 (Mus musculus, UniProt E2JF22); assay: Inside-out patch recording of single-channel activity, compound in pipette solution; type: cell-based; conditions: −80 mV
T1 construct: The full-length mPiezo1 has 2547 amino acids in each monomer; expressed in transfected cells; host or cells: HEK293T
Source text: For inside-out patch-clamp recordings using an Axopatch 200B amplifier (Axon Instruments), the “extracellular” pipette solution consists of (in mM) the following: 130 NaCl, 5 KCl, 10 HEPES, 1 CaCl2, 1 MgCl2, and 10 TEA-Cl (pH 7.3 with NaOH), and the intracellular “bath” solution contains (in mM) the following: 140 KCl, 10 HEPES, 1 MgCl2, and 10 glucose (pH 7.3 with KOH). All experiments were done at room temperature. Currents were sampled at 20 kHz using Clampex 10.4 software (Axon Instruments) and filtered at 2 kHz. Additional offline filtering of 1 kHz was applied to the recordings for display. Single-channel activity in the presence or absence of Jedi or Yoda1 was continuously recorded for 5 min at −80 mV. The single-channel open probability (NPo) and unitary conductance of mPiezo1 were analyzed using the pClamp software built-in features. Current amplitudes of individual cells recorded at −80 mV were calculated from Gaussian fits to the current amplitude histograms.

mPiezo1(1–2190) = target: T2, mPiezo1(1–2190) (Mus musculus, UniProt E2JF22); assay: SPR binding to immobilized purified protein; conditions: FPLC fraction of trimeric proteins
T2 construct: N-terminal fragment containing residues 1–2190 [mPiezo1(1–2190)]; GST (PreScission site) (cleaved yes); made in house; host or cells: HEK293T
Source text: Since Jedi1/2 act through the extracellular side of Piezo1, we asked if it might bind to the C-terminal extracellular domain (CED; 2214–2457) that trimerizes to form the extracellular Cap-structure of the central ion-conducting pore module (Fig. 1)[8]. However, none of Jedi1/2, Yoda1, and the control compound bound to the purified CED proteins (without the use of the C12E10 detergent since they are soluble proteins; Fig. 4a–h). We next purified the large N-terminal fragment containing residues 1–2190 [mPiezo1(1–2190)] using the same purification procedure for mPiezo1. […] We used the FPLC fraction corresponding to the trimeric proteins (peak 2 of Supplementary Fig. 2d) for SPR binding assay. […] Given that Jedi1/2 function through the extracellular side, we propose that Jedi1/2 bind to the extracellular loop regions of the blade. The distant location of the Jedi action region relative to the pore indicates a distinct long-distance allosteric gating of Piezo1.
(§1) Real-time binding and analysis by SPR were conducted on BIAcore T200 instrument (GE Healthcare) at 25 °C. Proteins were immobilized on a research-grade CM5 sensor chip by amine-coupling methods. During the pH scouting process, 10 mM sodium acetate at various pH including 4.0, 4.5, 5.0, and 5.5 and protein concentrations varying between 10 and 100 μg/ml were screened before immobilization. Except pH 4.5 for mPiezo1-(1–2190), pH 5.0 was used for all other proteins, including mPiezo1, CED, Δ15-16, and Δ19-20. All proteins were diluted to 50 μg/ml in buffer containing 10 mM sodium acetate at the abovementioned pH, 0.026% C12E10 detergent, and 150 mM NaCl, except that the soluble CED proteins, which were diluted in 150 mM NaCl without detergent. […]
(§2) For data collection, compounds at various concentrations were diluted in a running buffer containing 1× PBS, 0.026% detergent C12E10, and 0.05% Surfactant P20 (GE Healthcare Bio-Sciences AB) and injected over the flow cells with at a 30 μl/min flow rate. […] Data were analyzed with the BIAcore T200 evaluation software by fitting to a 1:1 affinity-binding model.

mPiezo1 [2] = target: T1, mPiezo1; assay: SPR binding to immobilized purified protein; conditions: immobilized mPiezo1 in C12E10, 25 °C
Method: We next employed the surface plasmon resonance (SPR) binding assay to examine whether Jedi1/2 bind directly to purified mPiezo1 proteins solubilized in the C12E10 detergent (Supplementary Fig. 2a, b). Based on an amine-coupling method, Piezo1 proteins (50 μg/ml) were optimally immobilized onto a research-grade CM5 sensor chip by using a buffer containing 10 mM sodium acetate (pH 5.0), 150 mM NaCl, 0.026% C12E10, and 0.05% Surfactant P20. […] Given the hydrophilic nature of Jedi1/2, it is possible that the amine-based attachment of the purified Piezo1 protein to the SPR sensor chip might affect the binding. […] Nevertheless, given their low binding affinity, we could not totally exclude the possibility that Jedi1/2 might indirectly activate Piezo1 in the cell.
as §1, with “detergent. During the immobilization process, the CM5 sensor was activated with NHS first, allowing the amine-containing proteins to be coupled to the sensor through NHS.” for “detergent.”
as §2

T2 sequence (E2JF22 1-2190): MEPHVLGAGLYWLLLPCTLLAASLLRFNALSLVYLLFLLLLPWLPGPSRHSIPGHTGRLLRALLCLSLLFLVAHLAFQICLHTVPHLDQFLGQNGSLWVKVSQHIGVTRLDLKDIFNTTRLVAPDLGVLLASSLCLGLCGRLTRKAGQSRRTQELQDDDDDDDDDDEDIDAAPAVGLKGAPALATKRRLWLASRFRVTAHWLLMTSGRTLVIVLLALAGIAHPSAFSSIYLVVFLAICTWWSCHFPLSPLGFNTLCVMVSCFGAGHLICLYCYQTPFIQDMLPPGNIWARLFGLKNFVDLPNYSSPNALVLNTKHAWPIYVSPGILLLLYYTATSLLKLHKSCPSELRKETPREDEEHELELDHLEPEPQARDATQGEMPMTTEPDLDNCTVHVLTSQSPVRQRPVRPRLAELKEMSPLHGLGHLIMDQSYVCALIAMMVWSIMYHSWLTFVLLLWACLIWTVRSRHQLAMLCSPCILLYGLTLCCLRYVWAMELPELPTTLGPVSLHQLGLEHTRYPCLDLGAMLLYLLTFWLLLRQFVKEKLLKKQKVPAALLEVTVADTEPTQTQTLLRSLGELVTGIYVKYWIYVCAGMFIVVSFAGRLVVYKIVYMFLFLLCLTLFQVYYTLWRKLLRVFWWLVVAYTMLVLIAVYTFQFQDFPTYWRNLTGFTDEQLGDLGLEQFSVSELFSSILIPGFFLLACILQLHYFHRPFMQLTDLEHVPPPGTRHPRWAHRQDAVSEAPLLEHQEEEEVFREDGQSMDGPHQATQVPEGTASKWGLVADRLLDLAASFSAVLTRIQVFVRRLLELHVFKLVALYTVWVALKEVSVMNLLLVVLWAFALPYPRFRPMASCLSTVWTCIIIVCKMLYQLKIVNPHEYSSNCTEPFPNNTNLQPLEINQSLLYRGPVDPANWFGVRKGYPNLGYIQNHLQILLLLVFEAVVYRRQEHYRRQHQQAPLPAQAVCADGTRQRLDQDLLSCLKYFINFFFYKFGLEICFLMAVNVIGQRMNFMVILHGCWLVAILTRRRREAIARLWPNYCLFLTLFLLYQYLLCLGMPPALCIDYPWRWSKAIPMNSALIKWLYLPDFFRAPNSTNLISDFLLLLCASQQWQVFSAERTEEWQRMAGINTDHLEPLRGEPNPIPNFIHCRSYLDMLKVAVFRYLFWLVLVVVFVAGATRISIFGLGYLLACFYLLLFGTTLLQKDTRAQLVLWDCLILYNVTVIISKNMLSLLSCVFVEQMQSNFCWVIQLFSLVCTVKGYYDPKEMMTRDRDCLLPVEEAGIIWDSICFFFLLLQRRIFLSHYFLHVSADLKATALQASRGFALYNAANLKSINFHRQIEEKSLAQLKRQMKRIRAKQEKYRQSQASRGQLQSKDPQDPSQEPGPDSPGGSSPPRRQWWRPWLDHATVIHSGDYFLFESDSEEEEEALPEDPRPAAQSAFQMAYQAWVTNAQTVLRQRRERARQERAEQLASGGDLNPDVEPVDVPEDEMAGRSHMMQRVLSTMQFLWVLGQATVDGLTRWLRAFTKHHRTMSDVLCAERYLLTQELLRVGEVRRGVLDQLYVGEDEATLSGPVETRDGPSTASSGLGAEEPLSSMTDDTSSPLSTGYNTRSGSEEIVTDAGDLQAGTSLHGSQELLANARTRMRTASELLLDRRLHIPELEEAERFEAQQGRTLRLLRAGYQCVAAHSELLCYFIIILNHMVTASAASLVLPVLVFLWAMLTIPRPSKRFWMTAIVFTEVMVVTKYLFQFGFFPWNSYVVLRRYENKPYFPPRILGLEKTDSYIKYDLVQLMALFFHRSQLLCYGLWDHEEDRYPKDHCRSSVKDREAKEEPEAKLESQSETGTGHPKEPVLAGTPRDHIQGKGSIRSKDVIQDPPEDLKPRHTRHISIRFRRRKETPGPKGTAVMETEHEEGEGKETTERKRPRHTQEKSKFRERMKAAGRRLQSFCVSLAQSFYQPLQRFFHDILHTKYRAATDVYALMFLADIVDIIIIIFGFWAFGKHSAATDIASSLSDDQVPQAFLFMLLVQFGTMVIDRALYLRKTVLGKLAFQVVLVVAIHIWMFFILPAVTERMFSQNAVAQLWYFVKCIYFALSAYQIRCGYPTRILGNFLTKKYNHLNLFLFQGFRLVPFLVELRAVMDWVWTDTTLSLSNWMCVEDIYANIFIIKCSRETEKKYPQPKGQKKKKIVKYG
T1 sequence (E2JF22 whole entry): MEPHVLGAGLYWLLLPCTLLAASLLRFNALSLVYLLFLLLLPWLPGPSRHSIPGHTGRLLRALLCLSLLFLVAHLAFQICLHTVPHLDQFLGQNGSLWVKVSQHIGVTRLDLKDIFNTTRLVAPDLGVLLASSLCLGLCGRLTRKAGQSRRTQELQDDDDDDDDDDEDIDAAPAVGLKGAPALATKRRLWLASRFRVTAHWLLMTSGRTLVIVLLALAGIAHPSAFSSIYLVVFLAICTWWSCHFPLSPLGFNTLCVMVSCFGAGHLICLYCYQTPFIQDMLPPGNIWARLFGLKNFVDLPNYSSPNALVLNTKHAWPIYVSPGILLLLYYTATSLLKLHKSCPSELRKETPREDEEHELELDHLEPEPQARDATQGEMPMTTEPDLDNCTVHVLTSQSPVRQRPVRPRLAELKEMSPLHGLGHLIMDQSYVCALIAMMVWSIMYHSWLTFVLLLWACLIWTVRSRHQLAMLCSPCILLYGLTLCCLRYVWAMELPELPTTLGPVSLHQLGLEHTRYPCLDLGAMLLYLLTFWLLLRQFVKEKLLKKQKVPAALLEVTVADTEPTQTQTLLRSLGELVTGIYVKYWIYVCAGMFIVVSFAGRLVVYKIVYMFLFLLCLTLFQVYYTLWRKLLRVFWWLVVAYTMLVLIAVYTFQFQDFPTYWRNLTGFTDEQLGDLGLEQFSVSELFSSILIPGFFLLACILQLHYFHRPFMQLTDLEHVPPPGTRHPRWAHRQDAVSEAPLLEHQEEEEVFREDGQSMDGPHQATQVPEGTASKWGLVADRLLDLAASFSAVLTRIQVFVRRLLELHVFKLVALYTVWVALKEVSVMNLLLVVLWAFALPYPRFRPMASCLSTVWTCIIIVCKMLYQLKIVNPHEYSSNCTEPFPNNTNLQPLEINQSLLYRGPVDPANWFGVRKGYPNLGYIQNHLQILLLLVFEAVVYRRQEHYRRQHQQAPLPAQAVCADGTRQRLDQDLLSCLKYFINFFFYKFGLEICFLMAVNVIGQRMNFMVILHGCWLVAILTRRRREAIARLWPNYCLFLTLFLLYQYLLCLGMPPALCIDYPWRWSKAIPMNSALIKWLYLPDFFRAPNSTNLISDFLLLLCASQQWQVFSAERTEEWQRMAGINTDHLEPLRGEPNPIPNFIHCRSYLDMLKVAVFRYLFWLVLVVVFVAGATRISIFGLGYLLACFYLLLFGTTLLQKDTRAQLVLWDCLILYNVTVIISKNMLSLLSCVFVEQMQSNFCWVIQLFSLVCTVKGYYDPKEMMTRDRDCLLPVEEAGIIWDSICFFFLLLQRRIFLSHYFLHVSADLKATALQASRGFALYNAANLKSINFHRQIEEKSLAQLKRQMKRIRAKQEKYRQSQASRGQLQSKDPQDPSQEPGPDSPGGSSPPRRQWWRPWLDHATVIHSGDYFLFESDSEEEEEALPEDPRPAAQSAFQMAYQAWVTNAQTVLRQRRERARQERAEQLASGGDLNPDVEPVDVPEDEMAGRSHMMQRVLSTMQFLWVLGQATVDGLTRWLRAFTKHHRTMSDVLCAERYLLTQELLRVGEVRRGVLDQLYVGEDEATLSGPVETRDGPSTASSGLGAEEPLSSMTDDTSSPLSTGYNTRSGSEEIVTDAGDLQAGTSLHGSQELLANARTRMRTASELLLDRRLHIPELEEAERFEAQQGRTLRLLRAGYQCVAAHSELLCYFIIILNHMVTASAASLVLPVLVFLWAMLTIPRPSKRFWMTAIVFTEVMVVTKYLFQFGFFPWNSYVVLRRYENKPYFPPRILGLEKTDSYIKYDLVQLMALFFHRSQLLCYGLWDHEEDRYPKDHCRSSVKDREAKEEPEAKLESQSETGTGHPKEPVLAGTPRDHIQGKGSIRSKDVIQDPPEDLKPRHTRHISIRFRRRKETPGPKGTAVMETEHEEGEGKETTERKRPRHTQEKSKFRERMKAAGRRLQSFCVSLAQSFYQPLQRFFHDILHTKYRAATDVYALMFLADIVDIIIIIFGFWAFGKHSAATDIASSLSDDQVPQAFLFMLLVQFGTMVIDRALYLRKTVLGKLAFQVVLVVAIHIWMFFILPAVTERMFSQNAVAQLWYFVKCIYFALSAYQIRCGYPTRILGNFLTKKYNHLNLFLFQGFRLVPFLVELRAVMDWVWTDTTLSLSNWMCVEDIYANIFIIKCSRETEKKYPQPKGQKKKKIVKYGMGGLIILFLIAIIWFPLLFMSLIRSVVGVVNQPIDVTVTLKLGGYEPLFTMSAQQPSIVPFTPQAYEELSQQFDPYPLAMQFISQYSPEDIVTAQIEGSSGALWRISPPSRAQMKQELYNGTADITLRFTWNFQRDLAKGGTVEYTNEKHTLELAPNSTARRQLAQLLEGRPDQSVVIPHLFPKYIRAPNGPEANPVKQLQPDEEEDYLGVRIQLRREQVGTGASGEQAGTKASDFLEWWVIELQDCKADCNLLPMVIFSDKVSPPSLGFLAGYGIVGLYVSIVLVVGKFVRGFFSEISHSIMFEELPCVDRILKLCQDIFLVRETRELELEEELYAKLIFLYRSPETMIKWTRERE

SMILES: Cc1oc(-c2ccccc2)cc1C(=O)O [Jedi1]
- fold change of the open probability (NPo) (mPiezo1 [1]): 9.6 ± 2.4 fold
- binding to mPiezo1(1–2190) proteins (SPR) (mPiezo1(1–2190)): virtually identical fashion as to mPiezo1
- Kd (mPiezo1 [2]): 2750 ± 425 µM

SMILES: Clc1cccc(Cl)c1CSc1nnc(-c2cnccn2)s1 [Yoda1, reference compound]
- fold change of the open probability (NPo) (mPiezo1 [1]): 14.8 ± 0.6 fold
- binding to mPiezo1(1–2190) proteins (SPR) (mPiezo1(1–2190)): virtually identical fashion as to mPiezo1
- Kd (mPiezo1 [2]): 45.6 ± 14.3 µM

SMILES: Cc1oc(-c2cccs2)cc1C(=O)O [Jedi2]
- fold change of the open probability (NPo) (mPiezo1 [1]): significant increase in the opening probability
- binding to mPiezo1(1–2190) proteins (SPR) (mPiezo1(1–2190)): virtually identical fashion as to mPiezo1
- Kd (mPiezo1 [2]): 2770 ± 178 µM
